Test results taken from patent US8232299B2, “Phthalimide derivatives that influence cellular vesicular systems, pharmaceutical compositions, and use thereof” (Avidin Kft., priority 2007, dated 2012).

Assays:
[1] = system: HepG2 (human hepatocellular carcinoma); assay: cytotoxic effect on hepatocellular carcinoma cell line, MTS test, 24 hours; type: cell-based; conditions: 24 hours incubation, already at 20 and 50 μM concentrations
Method: (§1) In these experiments HepG2 (human hepatocellular carcinoma) and MCF7 (Human breast adenocarcinoma) cells were used. They were cultured in the following media: For HepG2 Dulbecco's Modified Eagle Medium (D-MEM) (high glucose) (Gibco BRL, Carlsbad, Calif., USA), penicillin (50 IU/ml)-streptomycin ([…]), 10% fetal bovine serum; for MCF7 (Human breast adenocarcinoma) 1:1 mixture of Dulbecco's Modified Eagle Medium (D-MEM) (high glucose) (Gibco BRL, Carlsbad, Calif., USA) and Nutrient Mixture F-12 Ham (Sigma, St. Louis, Mo., USA), penicillin (50 IU/ml)-streptomycin ([…]), 10% fetal bovine serum. Experiments were performed as described in Example 9. with the difference that the incubation time was 24 hours in this case. After the incubation period MTS test (3-(4,5-dimethylthiazol-2-yl)-5-(3-carboxymethoxyphenyl)-2-(4-sulfophenyl)-2H-tetrazolium) (Promega, Madison, Wis., USA) was performed as described above.

[2] = system: TNFα; assay: late phase (transcriptionally induced) TNFα secretion of macrophages, ELISA; type: cell-based, mice; conditions: preformed TNFα washed away after 4 hours, TNFα of next 4 hours; FIG. 3
Method: For the detection of late phase TNFα secretion the preformed TNFα, released after LPS induction of the macrophages, was washed away after 4 hours, and the amount of TNFα produced during the next 4 hours was determined by ELISA test. […] Results are depicted in FIG. 3.

[3] = system: TNFα; assay: early (preformed) TNFα secretion of RAW.264.7 macrophages, ELISA; type: cell-based, mice
Source text: Matured macrophages produce tumor necrosis factor (TNF-alpha or TNFα) in response to bacterial lipopolysaccharide (E. coli LPS, Sigma) stimulation. TNFα production is induced by […] to the toll-like receptor 4 (TLR-4), the lipopolysaccharide binding protein (LBP), and the CD14 receptor. Secretion of the TNFα is biphasic. For one hour after the stimulation macrophages respond with release of preformed TNFα. Meanwhile, the NF-kappaB signaling pathway turns on the TNFα gene transcription reaching maximum after approximately 8 hours.
(§2) In our experiments we investigated the early TNFα secretion of RAW.264.7 matured mice macrophages. This cell line stores large amount of preformed TNFα. […] Culture supernatant was collected and TNFα content was determined by R&D Duoset ELISA kit (detection limit<62.5 pg/ml). […] So the reduced TNFα level was due to inhibition of the release of preformed TNFα and not due to dying of the cells.
In this example two controls (diluent only—ethanol incubated) and four treated samples were analyzed.

[4] = system: RAW.264.7 matured mice macrophages; assay: MTS test of vitality / metabolic activity of the macrophages; type: cell-based
Method: as §2
Effects of compound 3a and compound 3b on TNFα secretion and on NF-kappaB activation could have been based on cytotoxicity as well. To exclude that, we determined the metabolic activity of the cells, which is proportional to the cell number, by MTS test 8 hours after the treatment.

[5] = system: MCF7 (Human breast adenocarcinoma); assay: cytotoxic effect on breast carcinoma cell line, MTS test, 24 hours; type: cell-based; conditions: 24 hours incubation, in the concentration range tested
Method: as §1

CCNc1c(F)c(F)c2c(c1F)C(=O)N(c1c(C(C)C)cccc1C(C)C)C2=O [Compound 3b, 2-(2,6-diisopropylphenyl)-5-(ethylamino)-4,6,7-trifluoroisoindole-1,3-dione]
effect on HepG2 cells [1]: strong effect
late TNFα secretion of macrophages [2]: inhibited late TNFα secretion of macrophages in a concentration dependent way
LPS stimulated TNFα release of the macrophages ([3]; 100 ng/ml LPS, FIG. 2b): reduces the induced TNFα release
basal TNFα release of the macrophages ([3]; without LPS induction, FIG. 2a): able to reduce the basal TNFα release
vitality of the cells (MTS test) ([4]; 3 hours after the stimulation with LPS): no cell death was detected
metabolic activity of the cells (MTS test) ([4]; 8 hours after the treatment): not found to be toxic
effect on MCF7 cells [5]: weak effect
